molecular target: Human GLP-1R (Homo sapiens, UniProt P43220); assay: cAMP level determination in human GLP-1R stably transfected HEK293T cells (HTRF cAMP kit); format: cell-based; details: 37°C 30 min
Experimental: Human GLP-1R HEK293T stably transfected cells were digested with trypsin, terminated with DMEM total (without p/s), centrifuged and washed twice with 1X Stimulation buffer, then resuspended in 1X stimulation buffer and counted. The cells were then prepared as a 1 Million/mL cell suspension in stimulation buffer. Compound powder was first prepared as a 10 mM stock solution in DMSO, then diluted to 2 mM with DMSO, and further prepared as 2X compound in 1X stimulation buffer (Cisbio kit buffer with freshly added IBMX at a final concentration of 0.5 mM). The top dose final concentration was 2000 nM, with a final DMSO concentration of 0.2%, diluted in a 1:3 gradient for 11 gradients.
According to the layout, 5 µl of compound was added to each well; Min wells contained 100 nM GLP-1, and Max wells contained 0.2% DMSO in 1X stimulation buffer. 5 µl of cell suspension was added to each well, centrifuged at 300 rpm at room temperature for 1 min, then incubated at 37°C for 30 min. 2X cAMP standards were prepared in 1X Stimulation buffer, with a top final concentration of 2.8 µM, diluted in a 1:3 gradient for 12 doses. According to the layout, 10 µl was added to each well. Finally, d2 and antibody were diluted 20-fold in 1X Detection buffer (Cisbio kit buffer), and 5 µl of each was added to each well according to the layout. After centrifugation at 300 rpm at room temperature for 1 min, the plate was incubated at room temperature for 2 hr.
Stimulation% was calculated based on Min and Max readings (665nm/615nm ratio) using the formula: 100*(ratio Max well - ratio test well)/(ratio Max well - ratio Min well). The cAMP concentration in each test well was derived from the cAMP standard curve, and the data was analyzed using GraphPad Prism 9 to plot four-parameter fit curves and calculate EC50 values using the formula: Y=Bottom + (Top-Bottom)/(1+10^((LogEC50-X)*HillSlope)). Table 1: cAMP Level Determination in Human GLP-1R Stably Transfected HEK293T Cells

Chain of Human GLP-1R (P43220 24-463): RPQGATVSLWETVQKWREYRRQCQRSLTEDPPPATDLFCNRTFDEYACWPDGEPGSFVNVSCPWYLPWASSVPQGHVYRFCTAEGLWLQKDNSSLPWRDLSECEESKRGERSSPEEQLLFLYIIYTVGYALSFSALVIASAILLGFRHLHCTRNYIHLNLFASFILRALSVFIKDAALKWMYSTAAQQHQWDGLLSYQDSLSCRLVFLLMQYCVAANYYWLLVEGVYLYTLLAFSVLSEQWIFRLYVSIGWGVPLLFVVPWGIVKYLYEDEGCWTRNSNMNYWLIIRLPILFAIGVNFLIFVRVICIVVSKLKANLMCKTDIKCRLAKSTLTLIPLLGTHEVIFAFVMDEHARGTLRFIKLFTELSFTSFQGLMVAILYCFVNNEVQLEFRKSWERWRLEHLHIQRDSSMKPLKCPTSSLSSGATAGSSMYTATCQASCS

Question: For Cc1cc(-n2nc3c(c2-n2ccn(-c4ccc(C#N)nc4)c2=O)[C@H](C)N(C(=O)c2cc4cc(C5CCOC(C)(C)C5)ccc4n2[C@@]2(c4nc(=O)o[nH]4)C[C@@H]2C)CC3)cc(C)c1F (stereo partly shown) [Compound 91], which EC50 is on record?
Answer: 38.4 nM

Question: Cc1cc(-n2nc3c(c2-n2ccn(-c4ccc(C#N)c(Cl)c4F)c2=O)[C@H](C)N(C(=O)c2cc4cc(C5CCOC(C)(C)C5)ccc4n2[C@@]2(c4nc(=O)o[nH]4)C[C@@H]2C)CC3)cc(C)c1F (stereo partly shown) [Compound 97] was tested. Which EC50 did it give?
Answer: 7.84 nM

Question: Which EC50 does the source give for Cc1cc(-n2nc3c(c2-n2ccn(-c4ccc(C#N)c(F)c4F)c2=O)[C@H](C)N(C(=O)c2cc4cc(C5CCOC(C)(C)C5)ccc4n2[C@@]2(c4nc(=O)o[nH]4)C[C@@H]2C)CC3)cc(C)c1F (stereo partly shown) [Compound 93] here?
Answer: 15.1 nM

Question: How did the EC50 turn out when Cc1cc(-n2nc3c(c2-n2ccn(-c4ccc(C(=O)N(C)C5CC5)c(C(F)(F)F)c4)c2=O)[C@H](C)N(C(=O)c2cc4cc([C@H]5CCOC(C)(C)C5)ccc4n2[C@@]2(c4nc(=O)o[nH]4)C[C@@H]2C)CC3)cc(C)c1F [Compound 6] was run?
Answer: 5.16 nM

Question: For Cc1cc(-n2nc3c(c2-n2ccn(-c4ccc(N(C)C(=O)C5CC5)c(F)c4)c2=O)[C@H](C)N(C(=O)c2cc4cc(C5CCOC(C)(C)C5)ccc4n2[C@@]2(c4noc(=O)[nH]4)C[C@@H]2C)CC3)cc(C)c1F (stereo partly shown) [Compound 63], which EC50 is on record?
Answer: 8.69 nM

Question: How did the EC50 turn out when Cc1cc(-n2nc3c(c2-n2ccn(-c4cc(F)cc(C#N)c4)c2=O)[C@H](C)N(C(=O)c2cc4cc(C5CCOC(C)(C)C5)ccc4n2[C@@]2(c4nc(=O)o[nH]4)C[C@@H]2C)CC3)cc(C)c1F (stereo partly shown) [Compound 92] was run?
Answer: 43.5 nM

Question: Which EC50 does the source give for Cc1cc(-n2nc3c(c2-n2ccn(-c4ccc(C(=O)N(C)C5CC5)cc4C#N)c2=O)[C@H](C)N(C(=O)c2cc4cc(C5CCOC(C)(C)C5)ccc4n2[C@@]2(c4nc(=O)o[nH]4)C[C@@H]2C)CC3)cc(C)c1F (stereo partly shown) [Compound 36] here?
Answer: 67.8 nM

Question: How did the EC50 turn out when Cc1cc(-n2nc3c(c2-n2ccn(-c4ccc(C#N)c(F)c4)c2=O)[C@H](C)N(C(=O)c2cc4cc([C@H]5CCOC(C)(C)C5)ccc4n2[C@@]2(c4nc(=O)o[nH]4)C[C@@H]2C)CC3)cc(C)c1F [Compound 82b] was run?
Answer: 6.4 nM

Question: How did the EC50 turn out when Cc1cc(-n2nc3c(c2-n2ccn(-c4ccc(N(C)C5CC5)c(OC(F)(F)F)c4)c2=O)[C@H](C)N(C(=O)c2cc4cc(C5CCOC(C)(C)C5)ccc4n2[C@@]2(c4noc(=O)[nH]4)C[C@@H]2C)CC3)cc(C)c1F (stereo partly shown) [Compound 66] was run?
Answer: 67.8 nM

Question: Which EC50 does the source give for Cc1cc(-n2nc3c(c2-n2ccn(-c4ccc(C#N)cc4)c2=O)[C@H](C)N(C(=O)c2cc4cc(C5CCOC(C)(C)C5)ccc4n2[C@@]2(c4nc(=O)o[nH]4)C[C@@H]2C)CC3)cc(C)c1F (stereo partly shown) [Compound 90] here?
Answer: 15.1 nM

Question: Which EC50 does the source give for Cc1cc(-n2nc3c(c2-n2ccn(-c4ccc(N(C)C(=O)C5CC5)c(F)c4)c2=O)[C@H](C)N(C(=O)c2cc4cc([C@@H]5CCOC(C)(C)C5)ccc4n2[C@@]2(c4noc(=O)[nH]4)C[C@@H]2C)CC3)cc(C)c1F [Compound 63a] here?
Answer: 146 nM

Question: C[C@H]1c2c(nn(-c3ccc(F)c(C4CC4(F)F)c3)c2-n2ccn(-c3ccc4c(cnn4C)c3F)c2=O)CCN1C(=O)c1cc2cc(C3CCOC(C)(C)C3)ccc2n1[C@@]1(c2nc(=O)o[nH]2)C[C@@H]1C (stereo partly shown) [Compound 2] was tested. Which EC50 did it give?
Answer: 56.5 nM

Question: For Cc1cc(-n2nc3c(c2-n2ccn(-c4ccc(N(C)C(=O)C5CC5)c(F)c4)c2=O)[C@H](C)N(C(=O)c2cc4cc([C@H]5CCOC(C)(C)C5)ccc4n2[C@@]2(c4noc(=O)[nH]4)C[C@@H]2C)CC3)cc(C)c1F [Compound 63b], which EC50 is on record?
Answer: 6.4 nM

Question: Cc1cc(-n2nc3c(c2-n2ccn(-c4ccc(N(C)C(=O)C5CC5)cc4F)c2=O)[C@H](C)N(C(=O)c2cc4cc([C@H]5CCOC(C)(C)C5)ccc4n2[C@@]2(c4nc(=O)o[nH]4)C[C@@H]2C)CC3)cc(C)c1F [Compound 76] was tested. Which EC50 did it give?
Answer: 8.18 nM

Question: For C[C@H]1c2c(nn(-c3ccc(F)c(C4CC4)c3)c2-n2ccn(-c3ccc4c(cnn4C)c3F)c2=O)CCN1C(=O)c1cc2cc([C@@H]3CCOC(C)(C)C3)ccc2n1[C@@]1(c2nc(=O)o[nH]2)C[C@@H]1C [Compound 1a], which EC50 is on record?
Answer: 35.5 nM

Question: Which EC50 does the source give for Cc1cc(-n2nc3c(c2-n2ccn(-c4ccc5c(c4)S(=O)(=O)CCC5)c2=O)[C@H](C)N(C(=O)c2cc4cc(C5CCOC(C)(C)C5)ccc4n2[C@@]2(c4nc(=O)o[nH]4)C[C@@H]2C)CC3)cc(C)c1F (stereo partly shown) [Compound 59] here?
Answer: 15 nM

Question: With Cc1cc(-n2nc3c(c2-n2ccn(-c4ccc(C(=O)N(C(C)C)C5CC5)cc4)c2=O)[C@H](C)N(C(=O)c2cc4cc(C5CCOC(C)(C)C5)ccc4n2[C@@]2(c4nc(=O)o[nH]4)C[C@@H]2C)CC3)cc(C)c1F (stereo partly shown) [Compound 25] as the compound, how does the EC50 read?
Answer: 11.8 nM

Question: For Cc1cc(-n2nc3c(c2-n2ccn(-c4cc(F)c(C(=O)N(C)C5CC5)c(Cl)c4F)c2=O)[C@H](C)N(C(=O)c2cc4cc(C5CCOC(C)(C)C5)ccc4n2[C@@]2(c4nc(=O)o[nH]4)C[C@@H]2C)CC3)cc(C)c1F (stereo partly shown) [Compound 19], which EC50 is on record?
Answer: 16.2 nM

Question: C[C@H]1c2c(nn(-c3ccc(F)c(C4CC4)c3)c2-n2ccn(-c3ccc4c(cnn4C)c3F)c2=O)CCN1C(=O)c1cc2cc([C@H]3CCOC(C)(C)C3)ccc2n1[C@@]1(c2nc(=O)o[nH]2)C[C@@H]1C [Compound 1b] was tested. Which EC50 did it give?
Answer: 17.5 nM

Question: Which EC50 does the source give for Cc1cc(-n2nc3c(c2-n2ccn(-c4ccc5c(c4)C=CS5(=O)=O)c2=O)[C@H](C)N(C(=O)c2cc4cc([C@H]5CCOC(C)(C)C5)ccc4n2[C@@]2(c4noc(=O)[nH]4)C[C@@H]2C)CC3)cc(C)c1F [Compound 62b] here?
Answer: 4.53 nM

Question: How did the EC50 turn out when Cc1cc(-n2nc3c(c2-n2ccn(-c4ccc(C#N)cc4F)c2=O)[C@H](C)N(C(=O)c2cc4cc([C@@H]5CCOC(C)(C)C5)ccc4n2[C@@]2(c4nc(=O)o[nH]4)C[C@@H]2C)CC3)cc(C)c1F [Compound 81a] was run?
Answer: 387 nM

Question: Which EC50 does the source give for Cc1cc(-n2nc3c(c2-n2ccn(-c4cccc(C(=O)NC5CC5)c4)c2=O)[C@H](C)N(C(=O)c2cc4cc(C5CCOC(C)(C)C5)ccc4n2[C@@]2(c4nc(=O)o[nH]4)C[C@@H]2C)CC3)cc(C)c1F (stereo partly shown) [Compound 47] here?
Answer: 65.1 nM

Question: With Cc1cc(-n2nc3c(c2-n2ccn(-c4ccc(C(=O)N(C)C5(C)CC5)c(OC(F)(F)F)c4)c2=O)[C@H](C)N(C(=O)c2cc4cc(C5CCOC(C)(C)C5)ccc4n2[C@@]2(c4nc(=O)o[nH]4)C[C@@H]2C)CC3)cc(C)c1F (stereo partly shown) [Compound 34] as the compound, how does the EC50 read?
Answer: 7.44 nM

Question: With Cc1cc(-n2nc3c(c2-n2ccn(-c4ccc(C(=O)N(C)C5CC5)c(OC(F)(F)F)c4)c2=O)[C@H](C)N(C(=O)c2cc4cc([C@H]5CCOC(C)(C)C5)ccc4n2[C@@]2(c4nc(=O)o[nH]4)C[C@@H]2C)CC3)cc(C)c1F [Compound 12] as the compound, how does the EC50 read?
Answer: 9.58 nM

Question: Which EC50 does the source give for Cc1cc(-n2nc3c(c2-n2ccn(-c4ccc(N(C)C(=O)C5CCC5)c(F)c4)c2=O)[C@H](C)N(C(=O)c2cc4cc([C@H]5CCOC(C)(C)C5)ccc4n2[C@@]2(c4nc(=O)o[nH]4)C[C@@H]2C)CC3)cc(C)c1F [Compound 72] here?
Answer: 9.71 nM

Question: For Cc1cc(-n2nc3c(c2-n2ccn(-c4ccc(C(=O)N(C)CC#N)cc4)c2=O)[C@H](C)N(C(=O)c2cc4cc(C5CCOC(C)(C)C5)ccc4n2[C@@]2(c4nc(=O)o[nH]4)C[C@@H]2C)CC3)cc(C)c1F (stereo partly shown) [Compound 44], which EC50 is on record?
Answer: 16.9 nM

Question: Which EC50 does the source give for Cc1cc(-n2nc3c(c2-n2ccn(-c4ccc(C#N)c(C)c4F)c2=O)[C@H](C)N(C(=O)c2cc4cc(C5CCOC(C)(C)C5)ccc4n2[C@@]2(c4nc(=O)o[nH]4)C[C@@H]2C)CC3)cc(C)c1F (stereo partly shown) [Compound 96] here?
Answer: 7.37 nM

Question: With Cc1cc(-n2nc3c(c2-n2ccn(-c4ccc(N(C)C5CC5)c(C(F)(F)F)c4)c2=O)[C@H](C)N(C(=O)c2cc4cc(C5CCOC(C)(C)C5)ccc4n2[C@@]2(c4nc(=O)o[nH]4)C[C@@H]2C)CC3)cc(C)c1F (stereo partly shown) [Compound 64] as the compound, how does the EC50 read?
Answer: 29 nM

From patent publication EP4737454A1, “GLP-1 RECEPTOR AGONIST, AND PREPARATION METHOD THEREFOR AND USE THEREOF” (Wayne Biotechnology Co., Ltd., priority 2023, dated 2025)
